Experimental data reported in US12396461B2, “Functional peptides having antimicrobial activity against phytopathogenic microorganisms” (TOYOTA JIDOSHA KABUSHIKI KAISHA, priority 2019, dated 2025).
Several values for one entry are separate records, joined by “and”; a condition that tells them apart may be missing. Equal values may be shown once. Read-outs that look alike come from different tables or passages of the source.

Experiments:
[1] = tested on: Botrytis cinerea; format: cell-based; design: key to Plate antimicrobial activity test Botrytis cinerea, level: a case where hyphae extended to the entire well and no antimicrobial activity was found is defined as “level 0,”; a case where hyphae extended to less than a half of the well and thus the peptide inhibited the growth of the hyphae is defined as “level 1,”; a case where ungerminated spores were present and the peptide partially inhibited the germination is defined as “level 2,”; a case where all spores were ungerminated and the peptide completely inhibited the germination is defined as “level 3.”; conditions: 25° C. for 1 day or 2 days, microscopic observation
[2] = tested on: Fusarium oxysporum; format: cell-based; design: key to Plate antimicrobial activity test Fusarium oxysporum, level: a case where hyphae extended to the entire well and no antimicrobial activity was found is defined as “level 0,”; a case where hyphae extended to less than a half of the well and thus the peptide inhibited the growth of the hyphae is defined as “level 1,”; a case where ungerminated spores were present and the peptide partially inhibited the germination is defined as “level 2,”; a case where all spores were ungerminated and the peptide completely inhibited the germination is defined as “level 3.”
[3] = tested on: Colletotrichum orbiculare; format: cell-based; design: key to Plate antimicrobial activity test Colletotrichum orbiculare, level: a case where hyphae extended to the entire well and no antimicrobial activity was found is defined as “level 0,”; a case where hyphae extended to less than a half of the well and thus the peptide inhibited the growth of the hyphae is defined as “level 1,”; a case where ungerminated spores were present and the peptide partially inhibited the germination is defined as “level 2,”; a case where all spores were ungerminated and the peptide completely inhibited the germination is defined as “level 3.”; conditions: 25° C. for 1 day or 2 days, microscopic observation
[4] = tested on: Pyricularia oryzae; format: cell-based; design: key to Plate antimicrobial activity test Pyricularia oryzae, level: a case where hyphae extended to the entire well and no antimicrobial activity was found is defined as “level 0,”; a case where hyphae extended to less than a half of the well and thus the peptide inhibited the growth of the hyphae is defined as “level 1,”; a case where ungerminated spores were present and the peptide partially inhibited the germination is defined as “level 2,”; a case where all spores were ungerminated and the peptide completely inhibited the germination is defined as “level 3.”; conditions: 25° C. for 1 day or 2 days, microscopic observation
[5] = tested on: plant pathogenic filamentous fungi; format: cell-based; conditions: Table 3
[6] = tested on: Colletotrichum destructivum; format: cell-based; design: key to Plate antimicrobial activity test Colletotrichum destructivum, level: a case where hyphae extended to the entire well and no antimicrobial activity was found is defined as “level 0,”; a case where hyphae extended to less than a half of the well and thus the peptide inhibited the growth of the hyphae is defined as “level 1,”; a case where ungerminated spores were present and the peptide partially inhibited the germination is defined as “level 2,”; a case where all spores were ungerminated and the peptide completely inhibited the germination is defined as “level 3.”; conditions: 25° C. for 1 day or 2 days, microscopic observation
[7] = tested on: Colletotrichum destructivum; test: Colletotrichum destructivum leaf inoculation test (Chinese cabbage leaf); format: in vivo; conditions: Chinese cabbage leaf, 25° C. for 4 days, lesions by visual inspection, symbols ◯/Δ/X not defined
Experimental: In the present example, a suspension comprising Colletotrichum destructivum and a peptide to be tested was dropped on a plant leaf, and lesions were then observed by visual inspection to evaluate the antimicrobial activity of the tested peptide. First, the pores of Colletotrichum destructivum were suspended in water to result in a spore concentration of 5×10^5 spores/ml, so as to prepare a water suspension of spores. Subsequently, a peptide to be tested (TsORF6-1) was added to the water suspension of spores, so that the final concentration of the peptide to be tested became 0 μM, 1 μM, 10 μM or 100 μM. Thereafter, 10 μl each of the water suspension of spores containing the peptide to be tested was dropped on the front side and the back side of the leaf of Chinese cabbage (variety name: “Kigokoro 85”). In this condition, incubation was carried out at 25° C. for 4 days. Thereafter, the front and back sides of the leaf were observed by visual inspection.

[8] = tested on: Botrytis cinerea; test: Botrytis cinerea leaf inoculation test (tomato leaf); format: in vivo; conditions: FIG. 2; PDB suspension spore solution containing 100 μl peptide; 25° C. for 2 days
Experimental: In the present example, a suspension comprising Botrytis cinerea and a peptide to be tested was dropped on a plant leaf, and lesions were then observed by visual inspection to evaluate the antimicrobial activity of the tested peptide. First, the pores of Botrytis cinerea were suspended in a potato dextrose broth (PDB) to result in a spore concentration of 5×10^5 spores/ml, so as to prepare a PDB suspension spore solution. Subsequently, a peptide to be tested (TsORF6-1) was added to the PDB suspension spore solution, so that the final concentration of the peptide to be tested became 0 μM, 1 μM, 10 μM or 100 μM. Thereafter, 10 μl each of the PDB suspension spore solution containing the peptide to be tested was dropped on the front side and the back side of the leaf of tomato (variety name: “Momotaro Fight”). In this condition, incubation was carried out at 25° C. for 2 days. Thereafter, the front and back sides of the leaf were observed by visual inspection.

Substance | Plate antimicrobial activity test Botrytis cinerea, level ([1]; peptide 1 μM) | Plate antimicrobial activity test Botrytis cinerea, level ([1]; peptide 10 μM) | Plate antimicrobial activity test Botrytis cinerea, level ([1]; peptide 100 μM) | Plate antimicrobial activity test Fusarium oxysporum, level [2] | Plate antimicrobial activity test Colletotrichum orbiculare, level ([3]; peptide 1 μM) | Plate antimicrobial activity test Colletotrichum orbiculare, level ([3]; peptide 10 μM) | Plate antimicrobial activity test Colletotrichum orbiculare, level ([3]; peptide 100 μM) | Plate antimicrobial activity test Pyricularia oryzae, level ([4]; peptide 1 μM) | Plate antimicrobial activity test Pyricularia oryzae, level ([4]; peptide 10 μM) | Plate antimicrobial activity test Pyricularia oryzae, level ([4]; peptide 100 μM) | germination inhibitory activity against plant pathogenic filamentous fungi, result in words [5] | Plate antimicrobial activity test Colletotrichum destructivum, level ([6]; peptide 1 μM) | Plate antimicrobial activity test Colletotrichum destructivum, level ([6]; peptide 10 μM) | Plate antimicrobial activity test Colletotrichum destructivum, level ([6]; peptide 100 μM) | Leaf inoculation test Chinese cabbage/Colletotrichum destructivum ([7]; peptide 100 μM) | Leaf inoculation test Chinese cabbage/Colletotrichum destructivum ([7]; peptide 10 μM) | lesion of Botrytis cinerea on tomato leaf, result in words [8]
MKVMI (listed as Solanum lycopersicum) [TsORF6-1-5aa-1, partial peptide of TsORF6-1, 5 amino acid residues] | 0 | 0 | 1 | 0 | 0 | 0 | 1 | 0 | 0 | 1 | extremely excellent germination inhibitory activity | 0 | 0 | 1 | ◯ |  | 
MKVMIVVK (listed as Solanum lycopersicum) [TsORF6-1-8aa-1, partial peptide of TsORF6-1, 8 amino acid residues] | 0 | 0 | 2 | 3 and 0 | 0 | 0 | 3 | 0 | 0 | 3 | extremely excellent germination inhibitory activity | 0 | 0 | 3 | ◯ | Δ | 
MKVMIVVKTKVKNKKVAKMMVKEDEKNKRVITMKEELMVVAEEEAYRRV RGGMGW (MKVMIVVKTKVKNKKVAKMMVKEDEKNKRVITMKEELMVVAEEEAYRRVRGGMGW; listed as Solanum lycopersicum) [TsORF6, peptide consisting of 55 amino acid residues identified in tomato xylem sap; total chain] | 0 | 0 | 3 | 3 and 0 | 0 | 0 | 1 | 0 | 0 | 2 |  | 0 | 0 | 0 | ◯ | ◯ | a lesion of Botrytis cinerea was not observed
VAKMM (listed as Solanum lycopersicum) [TsORF6-1-5aa-16, partial peptide of TsORF6-1, 5 amino acid residues] | 0 | 0 | 0 | 0 | 0 | 0 | 0 | 0 | 0 | 0 | extremely excellent germination inhibitory activity | 0 | 0 | 0 | ◯ |  | 
VMIVV (listed as Solanum lycopersicum) [TsORF6-1-5aa-3, partial peptide of TsORF6-1, 5 amino acid residues] | 0 | 0 | 1 | 0 | 0 | 0 | 1 | 0 | 0 | 0 | extremely excellent germination inhibitory activity | 0 | 0 | 1 | ◯ |  | 
VMIVVKTK (listed as Solanum lycopersicum) [TsORF6-1-8aa-3, partial peptide of TsORF6-1, 8 amino acid residues] | 0 | 0 | 3 | 3 and 0 | 0 | 0 | 3 | 0 | 0 | 3 | extremely excellent germination inhibitory activity | 0 | 0 | 3 | ◯ | ◯ | 
